Measurements: the NIST ThermoML archive (doi:10.1016/j.jct.2005.07.009)

Assays:
[1] = xn = mol fraction of the nth substance listed; settings: 298.15 K, 101 kPa, Liquid, Vibrating tube method
[2] = excess molar enthalpy (molar enthalpy of mixing); xn = mol fraction of the nth substance listed; settings: 298.15 K, 101 kPa, Liquid

BrCCCCCBr [1,5-dibromopentane] + CCCC(=O)OCC
Settings | excess molar enthalpy [kJ/mol] | mass density [kg/m3]
[1], x2 = 0.059 | – | 1646.96
[1], x2 = 0.1242 | – | 1594.68
[1], x2 = 0.1821 | – | 1548
[1], x2 = 0.238 | – | 1502.9
[1], x2 = 0.3008 | – | 1451.99
[1], x2 = 0.4202 | – | 1354.48
[1], x2 = 0.5373 | – | 1258.57
[1], x2 = 0.5953 | – | 1210.74
[1], x2 = 0.6536 | – | 1162.53
[1], x2 = 0.7109 | – | 1115.08
[1], x2 = 0.7685 | – | 1067.15
[1], x2 = 0.8314 | – | 1014.81
[1], x2 = 0.8895 | – | 966.17
[2], x2 = 0.0632 | 0.0228 | –
[2], x2 = 0.1296 | 0.0379 | –
[2], x2 = 0.1974 | 0.0489 | –
[2], x2 = 0.2617 | 0.0502 | –
[2], x2 = 0.3247 | 0.0439 | –
[2], x2 = 0.3843 | 0.0325 | –
[2], x2 = 0.4396 | 0.0195 | –
[2], x2 = 0.4909 | 0.0029 | –
[2], x2 = 0.5367 | -0.01 | –
[2], x2 = 0.5745 | -0.0214 | –
[2], x2 = 0.6072 | -0.0275 | –
[2], x2 = 0.6211 | -0.0316 | –
[2], x2 = 0.6798 | -0.0392 | –
[2], x2 = 0.7429 | -0.0436 | –
[2], x2 = 0.8114 | -0.0395 | –
[2], x2 = 0.878 | -0.0291 | –
[2], x2 = 0.9431 | -0.0149 | –

BrCCCCBr [1,4-dibromobutane] + CCCCC(=O)OCC
Settings | excess molar enthalpy [kJ/mol] | mass density [kg/m3]
[1], x2 = 0.0539 | – | 1762.5
[1], x2 = 0.109 | – | 1704.93
[1], x2 = 0.2129 | – | 1598.64
[1], x2 = 0.2678 | – | 1543.48
[1], x2 = 0.3262 | – | 1485.57
[1], x2 = 0.3815 | – | 1431.53
[1], x2 = 0.469 | – | 1347.31
[1], x2 = 0.5155 | – | 1303.25
[1], x2 = 0.554 | – | 1267.17
[1], x2 = 0.6207 | – | 1205.19
[1], x2 = 0.7373 | – | 1099.12
[1], x2 = 0.8643 | – | 986.49
[1], x2 = 0.9324 | – | 927.28
[2], x2 = 0.0901 | 0.0423 | –
[2], x2 = 0.1832 | 0.0562 | –
[2], x2 = 0.2717 | 0.0491 | –
[2], x2 = 0.3528 | 0.0267 | –
[2], x2 = 0.4123 | -0.0083 | –
[2], x2 = 0.4598 | -0.0356 | –
[2], x2 = 0.4897 | -0.0495 | –
[2], x2 = 0.5049 | -0.0529 | –
[2], x2 = 0.5621 | -0.0714 | –
[2], x2 = 0.6266 | -0.0826 | –
[2], x2 = 0.6967 | -0.087 | –
[2], x2 = 0.7722 | -0.0824 | –
[2], x2 = 0.852 | -0.0668 | –
[2], x2 = 0.9288 | -0.0403 | –

BrCCCCCBr [1,5-dibromopentane] + CCCCC(=O)OCC
Settings | excess molar enthalpy [kJ/mol] | mass density [kg/m3]
[1], x2 = 0.0539 | – | 1645.46
[1], x2 = 0.1105 | – | 1595.11
[1], x2 = 0.1636 | – | 1548.32
[1], x2 = 0.2206 | – | 1498.77
[1], x2 = 0.3289 | – | 1405.86
[1], x2 = 0.3899 | – | 1354.43
[1], x2 = 0.4455 | – | 1307.95
[1], x2 = 0.5024 | – | 1260.98
[1], x2 = 0.5632 | – | 1211.27
[1], x2 = 0.5935 | – | 1186.69
[1], x2 = 0.6792 | – | 1117.97
[1], x2 = 0.7412 | – | 1068.93
[1], x2 = 0.803 | – | 1020.6
[1], x2 = 0.8672 | – | 970.91
[1], x2 = 0.9294 | – | 923.31
[2], x2 = 0.0537 | 0.0294 | –
[2], x2 = 0.1124 | 0.0503 | –
[2], x2 = 0.1746 | 0.0661 | –
[2], x2 = 0.2384 | 0.0746 | –
[2], x2 = 0.3005 | 0.0749 | –
[2], x2 = 0.3573 | 0.066 | –
[2], x2 = 0.4121 | 0.05 | –
[2], x2 = 0.4619 | 0.0282 | –
[2], x2 = 0.5075 | 0.0041 | –
[2], x2 = 0.5483 | -0.0144 | –
[2], x2 = 0.5745 | -0.0237 | –
[2], x2 = 0.6374 | -0.0361 | –
[2], x2 = 0.7074 | -0.0419 | –
[2], x2 = 0.7809 | -0.0416 | –
[2], x2 = 0.8572 | -0.0355 | –
[2], x2 = 0.9337 | -0.0202 | –
